Source: ChEMBL document CHEMBL1140183, “Bornyl- and isobornyl-Delta8-tetrahydrocannabinols: a novel class of cannabinergic ligands” (J Med Chem, 2008)
pKi: −log10 of the molar value.

Columns and labels:
Cannabinoid receptor 1 = Cannabinoid receptor 1 (Rattus norvegicus, UniProt P20272); test: Displacement of [3H]CP-55940 from CB1 receptor in rat brain synaptosome membrane; format: cell membranes
Cannabinoid receptor 2 = Cannabinoid receptor 2 (Mus musculus, UniProt P47936); test: Displacement of [3H]CP-55940 from CB2 receptor in mouse spleen membrane; format: cell membranes
Sequence of Cannabinoid receptor 2 (P47936 whole entry): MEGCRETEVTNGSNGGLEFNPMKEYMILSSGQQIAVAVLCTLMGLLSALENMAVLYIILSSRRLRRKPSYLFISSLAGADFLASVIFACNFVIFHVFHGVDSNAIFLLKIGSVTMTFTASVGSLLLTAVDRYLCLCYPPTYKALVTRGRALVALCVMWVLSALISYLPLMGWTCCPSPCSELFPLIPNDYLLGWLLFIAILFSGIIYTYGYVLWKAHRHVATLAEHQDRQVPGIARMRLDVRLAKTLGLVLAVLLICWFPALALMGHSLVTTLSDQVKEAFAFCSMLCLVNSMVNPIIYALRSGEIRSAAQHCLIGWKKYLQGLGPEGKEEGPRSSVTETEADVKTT

Sequence of Cannabinoid receptor 1 (P20272 whole entry): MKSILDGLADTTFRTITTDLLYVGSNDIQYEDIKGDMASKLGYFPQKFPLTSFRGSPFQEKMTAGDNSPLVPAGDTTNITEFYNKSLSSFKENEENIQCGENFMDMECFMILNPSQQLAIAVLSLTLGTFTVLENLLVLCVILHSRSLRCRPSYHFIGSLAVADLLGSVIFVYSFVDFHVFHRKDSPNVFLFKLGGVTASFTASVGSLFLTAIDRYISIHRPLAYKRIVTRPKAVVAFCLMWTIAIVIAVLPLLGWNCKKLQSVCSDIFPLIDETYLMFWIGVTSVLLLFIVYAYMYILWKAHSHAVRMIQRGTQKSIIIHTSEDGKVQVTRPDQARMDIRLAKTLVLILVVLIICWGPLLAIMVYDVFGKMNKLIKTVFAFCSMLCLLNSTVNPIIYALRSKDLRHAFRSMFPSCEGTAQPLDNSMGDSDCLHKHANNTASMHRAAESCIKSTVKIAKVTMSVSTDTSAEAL

CC1=CC[C@@H]2[C@@H](C1)c1c(O)cc([C@@H]3C[C@@H]4CC[C@]3(C)C4(C)C)cc1OC2(C)C
pKi (Cannabinoid receptor 1): 7.22 | pKi (Cannabinoid receptor 2): 8.21

CC1=CC[C@@H]2[C@@H](C1)c1c(ccc(C[C@@H]3C[C@@H]4CC[C@]3(C)C4(C)C)c1O)OC2(C)C
pKi (Cannabinoid receptor 1): 7.31 | pKi (Cannabinoid receptor 2): 7.31

CC1=CC[C@@H]2[C@@H](C1)c1c(O)cc([C@H]3C[C@@H]4CC[C@]3(C)C4(C)C)cc1OC2(C)C
pKi (Cannabinoid receptor 1): 8.05 | pKi (Cannabinoid receptor 2): 8.13

CC1=CC[C@@H]2[C@@H](C1)c1c(ccc(C[C@H]3C[C@@H]4CC[C@]3(C)C4(C)C)c1O)OC2(C)C
pKi (Cannabinoid receptor 1): 7.49 | pKi (Cannabinoid receptor 2): 7.52
